Molecular target: T1, STARD4 (Homo sapiens, UniProt Q96DR4, C75S)
T1 construct: STARD4(2-205; C75S); made in house; host or cells: E. coli BL21(DE3)
T1 sequence (Q96DR4 2-205 C75S): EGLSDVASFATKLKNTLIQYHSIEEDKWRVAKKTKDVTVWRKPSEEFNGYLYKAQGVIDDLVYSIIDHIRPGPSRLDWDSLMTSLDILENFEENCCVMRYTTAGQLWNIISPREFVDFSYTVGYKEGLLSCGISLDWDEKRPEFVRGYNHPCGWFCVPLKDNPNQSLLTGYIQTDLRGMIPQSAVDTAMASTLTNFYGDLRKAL
Assay: Differential scanning fluorimetry (DSF), STARD4
Format: binding
Settings: for ΔTm at 10 µM / STARD4 (DSF) ΔTm: single dose, Dose = 10 µM; for Kd: apparent Kd, mean of three experiments run in technical duplicates, read-out: STARD4 Kd,app (DSF); for STARD4 (DSF) ΔTmmax: maximal thermal shift
Source text: Protein expression constructs
Human ASTER domains of Aster-A(359-547), -B(364-552) and -C(318-504) were subcloned into a pGEX-6p-2rbs vector, thus introducing the cloning artifact ‘GPLGS’.3 The pGEX-6P-1-GST-OSBP(377- […]
a gift from James H. Hurley (University of California).4 The pHIS_2His6_Thrombin_STARD4(2-205;C75S) plasmid was a gift from Young Jun Im (Chonnam National University).5 STARD5A was a gift from Nicola Burgess-Brown (Addgene plasmid #42392; http://n2t.net/addgene:42392; […]
Protein expression and purification […]
vectors including an N-terminal PreScission-cleavable glutathione S-transferase (GST)-tag were expressed in Escherichia coli (E. coli) OverExpress C41 in Terrific Broth (TB) medium for 16 h at 18 °C after the induction with 0.1 mM isopropyl β-D-1-thiogalactopyranoside (IPTG). Cells were harvested at 3500 × g for 15 minutes and lysed by sonication in buffer containing 50 mM HEPES pH 7.5, 300 mM NaCl, 10 %v/v glycerol, 5 mM dithiothreitol (DTT), 0.1 %v/v Triton X-100 and protease inhibitor mix HP plus (Serva). The lysate was purified by affinity chromatography on a GSTrap FF column (Cytiva) using an ÄKTA Start (Cytiva) in buffer containing 50 mM HEPES pH 7.5, 300 mM NaCl, 10 %v/v glycerol, 5 mM DTT and 0.01 %v/v Triton X-100. The GST-tag was cleaved overnight on the column at 4 °C. The Aster sterol binding domains were further purified by size-exclusion chromatography (SEC) on a HiLoad 16/600 Superdex 75 pg (Cytiva) in buffer containing 20 mM HEPES pH 7.5, 300 mM NaCl, 10 %v/v […]
STARD5(6-213) harboring an N-terminal His6-Tag were expressed in E. coli BL21(DE3) in Luria-Bertani Broth (LB) medium for approximately 16 h at 18 °C after induction with 0.15 mM IPTG. Cells were harvested at 3500 × g for 15 minutes and lysed by sonication in buffer containing 50 mM HEPES pH 7.5, 150 mM NaCl, 5 %v/v glycerol, 5 mM DTT, 0.1 %v/v Triton X -100 and ethylenediaminetetraacetic acid (EDTA)-free protease inhibitor cocktail (Sigma-Aldrich). The cleared lysate was purified by affinity chromatography on a Ni-NTA Superflow Cartridge (Qiagen) using an ÄKTA Start (Cytiva) in buffer containing 50 mM HEPES pH 7.5, 150 mM NaCl, 5 %v/v glycerol, 5 mM DTT. START domains were eluted by using elution buffer containing 50 mM HEPES pH 7.5, 150 mM NaCl, 5 %v/v glycerol, 5 mM DTT and 500 mM imidazole. Proteins were further purified by SEC on a HiLoad 16/600 Superdex 75 pg (Cytiva) in buffer containing 20 mM HEPES pH 7.5, 150 mM NaCl, 5 %v/v glycerol and 2 mM DTT.
The ORP domain of human OSBP(377-807) in the pGEX-6p-1 vector with an N-terminal PreScission-cleavable GST-tag was expressed in E. coli OverExpress C41 in LB medium for 16 h at 18 °C after induction with 0.1 mM IPTG. Cells were harvested at 3500 × g for 15 minutes and lysed by sonication in buffer containing 20 mM HEPES pH 7.5, 300 mM NaCl, 10 %v/v glycerol, 5 mM DTT, 0.1 %v/v Triton X-100 and EDTA-free protease inhibitor cocktail (Sigma-Aldrich). The cleared lysate was purified by affinity chromatography on a GSTrap HF column (Cytiva) using an ÄKTA Start (Cytiva) in buffer containing 20 mM HEPES pH 7.5, 300 mM NaCl, 10 %v/v glycerol, 5 mM DTT. OSBP(377 -807) was eluted by using elution buffer containing 20 mM HEPES pH 7.5, 300 mM NaCl, 10 %v/v glycerol, 5 mM DTT and 10 mM reduced glutathione. Proteins were further purified by SEC on a HiLoad 16/600 Superdex 75 pg (Cytiva) using an ÄKTA Explorer (Cytiva) in buffer containing 20 mM HEPES pH 7.5, 150 mM NaCl, 10 %v/v glycerol and 2 mM DTT.
The ORP domains of human ORP1(534-950) in pET24b(+) and ORP2(49-480) in the pET24b(+) vector including an N-terminal His6-Tag were expressed in E. coli BL21(DE3) in TB medium for approximately 16 h at 18 °C after induction with 0.1 mM IPTG. Cells were collected at 3500 × g for 15 minutes and lysed by sonification in buffer containing 10 mM Tris-HCl pH 8, 300 mM NaCl, 5 % glycerol, 2 mM DTT, 0.1 % Triton X-100 and EDTA-free protease inhibitor cocktail (Sigma-Aldrich). The cleared […]

| SMILES | ΔTm at 10 µM | STARD4 (DSF) ΔTm | also measured |
| --- | --- | --- | --- |
| C[C@]12CC[C@@H]3C[C@H]1CC[C@@]21C(=Nc2ccc(Br)cc21)O3 (racemic) [Compound 15b] | 1.5 °C |  |  |
| CC12CCC3CC1CCC21C(=Nc2ccc(N4CCOCC4)cc21)O3 (racemic) [Compound 19a] | 0.851 °C |  | Kd: > 30 µM; STARD4 (DSF) ΔTmmax: 1.1 °C |
| CC12CCC3CC1CCC21C(=Nc2ccc(Br)cc21)O3 (single isomer, unassigned; (+)) [(+)-15b] | 0.0899 °C |  | Kd: 7.89 µM; STARD4 (DSF) ΔTmmax: 1.4 °C |
| CC12CCC3CC1CCC21C(=Nc2ccc(N4CCOCC4)cc21)O3 (single isomer, unassigned; (+)) [(+)-19a] |  | 0.4 °C | Kd: > 50 µM; STARD4 (DSF) ΔTmmax: 1.1 °C |
| CC12CCC3CC1CCC21C(=Nc2ccc(N4CCOCC4)cc21)O3 (single isomer, unassigned; (-)) [(−)-19a] |  | 1.3 °C | Kd: > 30 µM; STARD4 (DSF) ΔTmmax: 1.3 °C |
| C[C@@]12CC[C@H]3C[C@@H]1CC[C@]21C(=Nc2ccc(Br)cc21)O3 [(−)-15b] | 0.324 °C |  | Kd: 6.04 µM; STARD4 (DSF) ΔTmmax: 3.6 °C |
| CC(C)Oc1ccc(C(=O)Nc2nc3c(s2)CN(C(=O)OC(C)(C)C)CC3)cc1 [Autogramin-2, reference compound] |  | 0.2 °C | Kd: > 30 µM |
| Cc1c2c(nc3ccccc13)[C@@]1(C)CC[C@@H](O)C[C@H]1CC2 [Compound 2a] | -0.141 °C |  |  |
| C[C@]12CC[C@@H](O)C[C@H]1CCc1c2nc2ccccc2c1-c1ccccc1 [Compound 2b] |  | -0.0888 °C |  |
| Cc1c2c(nc3cc(Br)ccc13)[C@@]1(C)CC[C@@H](O)C[C@H]1CC2 [Compound 2c] |  | 0.0489 °C |  |
| C[C@]12CC[C@@H](O)C[C@H]1CCc1c2nc2ccccc2c1-c1ccc(F)cc1 [Compound 2d] | -0.177 °C |  |  |
| C[C@]12CC[C@@H](O)C[C@H]1CCc1c2nc2ccc(Cl)cc2c1-c1ccccc1 [Compound 2e] |  | -0.00387 °C |  |
| C[C@]12CC[C@@H](O)C[C@H]1CCc1c2[nH]c2ncccc12 [Compound 3] | -0.021 °C |  |  |
| C[C@]12CC[C@@H](O)C[C@H]1CCC[C@]21Nc2ccccc2-n2cccc21 [Compound 4] | 0.6 °C | 0.7 °C |  |
| C[C@]12CC[C@@H](O)C[C@H]1CCC[C@]21NC(=O)c2ccccc2N1 [Compound 5a] | -0.124 °C | -0.0769 °C |  |
| C[C@]12CC[C@@H](O)C[C@H]1CCC[C@]21NC(=O)c2ccc(F)cc2N1 [Compound 5b] | -0.0901 °C | 0.027 °C |  |
| COc1ccc2c(c1)C(=O)N[C@]1(CCC[C@@H]3C[C@H](O)CC[C@@]31C)N2 [Compound 5c] | -0.0676 °C | -0.0518 °C |  |
| C[C@]12CC[C@@H](O)C[C@H]1CCc1nc3ccccc3nc12 [Compound 7a] | 0.0574 °C |  |  |
| Cc1cc2nc3c(nc2cc1C)[C@@]1(C)CC[C@@H](O)C[C@H]1CC3 [Compound 7b] | 0.27 °C |  |  |
| C[C@]12CC[C@@H](O)C[C@H]1CCc1nc3cc(F)c(F)cc3nc12 [Compound 7c] |  | 0.0575 °C |  |
| C[C@]12CC[C@@H](O)C[C@H]1CCc1nc3cc(Cl)c(Cl)cc3nc12 [Compound 7d] |  | -0.111 °C |  |
| C[C@]12CC[C@@H](O)C[C@H]1CCc1nc3cc(Br)c(Br)cc3nc12 [Compound 7e] |  | 0.0567 °C |  |
| C[C@]12CC[C@@H](O)C[C@H]1CCc1sc(N)nc12 [Compound 8a] | -0.00456 °C |  |  |

| SMILES | ΔTm at 10 µM | STARD4 (DSF) ΔTm | also measured |
| --- | --- | --- | --- |
| Cc1nc2c(s1)CC[C@@H]1C[C@H](O)CC[C@]21C [Compound 8b] |  | 0.0902 °C |  |
| C[C@]12CC[C@@H](O)C[C@H]1CCc1sc(-c3cccnc3)nc12 [Compound 8c] |  | 0.173 °C |  |
| COc1ccc(-c2nc3c(s2)CC[C@@H]2C[C@H](O)CC[C@]32C)cc1 [Compound 8d] | 0.3 °C |  |  |
| C[C@]12CC[C@@H](O)C[C@H]1CCc1sc(-c3ccc(F)cc3)nc12 [Compound 8e] |  | 0.7 °C |  |
| C[C@]12CC[C@@H](O)C[C@H]1CCc1[nH]c(-c3ccccc3)nc12 [Compound 9] | -0.0502 °C |  |  |
| C[C@]12CC[C@@H](O)C[C@H]1CCc1c2[nH]c2ccccc12 [Compound 10a] |  | 0.0293 °C |  |
| C[C@]12CC[C@@H](O)C[C@H]1CCc1c2[nH]c2ccc(Br)cc12 [Compound 10b] |  | 0.2 °C |  |
| C[C@]12CC[C@@H](O)C[C@H]1CCc1c2[nH]c2ccc(Cl)cc12 [Compound 10c] |  | 0.284 °C |  |
| C[C@]12CC[C@@H](O)C[C@H]1CCc1c2[nH]c2ccc(F)cc12 [Compound 10d] |  | 0.167 °C |  |
| Cc1ccc2[nH]c3c(c2c1)CC[C@@H]1C[C@H](O)CC[C@]31C [Compound 10e] | 0.284 °C |  |  |
| COc1ccc2[nH]c3c(c2c1)CC[C@@H]1C[C@H](O)CC[C@]31C [Compound 10f] | 0.0284 °C |  |  |
| CC12CCC(O)CC1CCc1c2[nH]c2ccc(C(F)(F)F)cc12 (stereo not drawn) [Compound 10g] | 0.00665 °C |  |  |
| C[C@]12CC[C@@H](O)C[C@H]1CCc1c2[nH]c2ccc(I)cc12 [Compound 10h] |  | -0.0169 °C |  |
| C[C@]12CC[C@@H](O)C[C@H]1CCc1c2[nH]c2c(F)cc(Cl)cc12 [Compound 10i] | 0.441 °C |  |  |
| Cc1cc(C)c2c3c([nH]c2c1)[C@@]1(C)CC[C@@H](O)C[C@H]1CC3 [Compound 10j] | -0.144 °C |  |  |
| CCOC(=O)c1ccc2[nH]c3c(c2c1)CC[C@@H]1C[C@H](O)CC[C@]31C [Compound 10k] |  | -0.04 °C |  |
| C[C@]12CC[C@@H](O)C[C@H]1CCC(=O)c1ccccc1NC2=O [Compound 11a] |  | -0.0281 °C |  |
| C[C@]12CC[C@@H](O)C[C@H]1CCC(=O)c1cc(Br)ccc1NC2=O [Compound 11b] | 0.126 °C |  |  |
| Cc1ccc2c(c1)C(=O)CC[C@@H]1C[C@H](O)CC[C@]1(C)C(=O)N2 [Compound 11c] | -0.0446 °C |  |  |
| COc1ccc2c(c1)C(=O)CC[C@@H]1C[C@H](O)CC[C@]1(C)C(=O)N2 [Compound 11d] | -0.0249 °C |  |  |
| C[C@]12CC[C@@H](O)C[C@H]1CCC(=O)c1cc(C(F)(F)F)ccc1NC2=O [Compound 11e] | -0.0316 °C |  |  |
| C[C@]12CC[C@@H](O)C[C@H]1CCC(=O)c1cc(Cl)cc(F)c1NC2=O [Compound 11f] |  | -0.0242 °C |  |

— publication PMC11758220, “Identification of a Privileged Scaffold for Inhibition of Sterol Transport Proteins through the Synthesis and Ring Distortion of Diverse, Pseudo-Natural Products” (ACS Central Science, 2025)
